Patent US12419870B2, “Compositions and methods for immune cell modulation in adoptive immunotherapies” (Fate Therapeutics, Inc., priority 2016, dated 2025)
Where a name gives a salt, the structure may show the parent alone.

Legend:
viable CD8+ population = test: In vitro T cell culture compound screen, flow cytometry for cells co-expressing CCR7 and CD62L in CD8+ cells; format: cell-based, human; details: 10 μM, about 6 days; for CD8 Hit: anti-CD3/anti-CD28 beads, hit criteria: Z-score > +2 for percent or relative absolute number of CCR7+CD62L+ cells; for number or ratio of cells co-expressing CCR7 and CD62L: viable CD8+ population
From the text: (§1) In Vitro T Cell Culture. Fresh leukopaks (AllCells, Alameda, CA) were obtained from healthy donors, from which T cells were negatively selected using the EasySep Human T Cell Enrichment Kit (Stem Cell Technologies, Vancouver, Canada). The freshly isolated T cells were aliquoted and cryopreserved. On the day the screens were initiated, T cells were thawed and washed into X-Vivo 15 with 5% human AB serum, IL-2, pen/strep, and additional supplements. Cells were dispensed into flat-bottom 384-well plates at 5×10^5 cells/ml with anti-CD3/Anti-CD28 dynabeads (ThermoFisher, Waltham, MA) at a 3:1 bead-to-cell ratio. Individual compounds were added at a final concentration of 10 μM to each well from column 3 to column 22 of each plate. Positive and negative controls were added to additional wells. Cells were incubated for about 6 days at 37 degrees with 5% CO2.
(§2) Flow Cytometry. On Day 6 of culture, cells were stained with a fixable viability marker and fluorophore-conjugated antibodies: CD3, CD4, CD8, CD45RA, CD45RO, CD62L, CCR7, CD27, and CD122 (BD Biosciences, San Jose, CA; and BioLegend, San Diego, CA). Fluorescent absolute counting beads (Spherotech, Lake Forest, IL) were added just prior to acquisition. Data acquisition was performed on a BD Fortessa X-20 (BD Biosciences) and data were analyzed using Treestar software (FlowJo, Ashland, OR) and Spotfire (Tibco, Boston, MA).
(§3) These cells are characterized by expression of CCR7 and CD62L. Therefore, cells co-expressing both of these identifying markers were evaluated. Within the viable CD4+ population and viable CD8+ population, the percent of cells co-expressing CCR7 and CD62L was determined. The expression of either CD62L or CCR7 on T cells, as indicative of the desired T cell subsets, have been described as having favorable functional characteristics for CAR-T cell therapy, and potentially other adoptive T cell therapies.
(§4) The number of events in each of these gates relative to the number of absolute counting beads in each sample was calculated, defining a relative measure of the absolute number of naïve, stem cell memory, or central memory T cells within the CD4+ and/or CD8+ populations. A z-Score relative to the screened compound samples within each 384-well plate was calculated for each of these four values: 1) percent CCR7+CD62L+ in CD4+, 2) percent CCR7+CD62L+ in CD8+, 3) absolute relative number of CCR7+CD62L+ in CD4+, and 4) absolute relative number of CCR7+CD62L+ in CD8+(FIGS. 1A and 1i). Z-scores were also calculated for the percent viability of all cells within each sample and the relative absolute number of cells within each sample. A “Z-Score” is a statistical measurement of a score's relationship to the mean in a group of scores. A Z-score of 0 means the score is the same as the mean. A Z-score can also be positive or negative, indicating whether it is above or below the mean and by how many standard deviations.

viable CD4+ population = test: In vitro T cell culture compound screen, flow cytometry for cells co-expressing CCR7 and CD62L in CD4+ cells; format: cell-based, human; details: 10 μM, about 6 days; for CD4 Hit: anti-CD3/anti-CD28 beads, hit criteria: Z-score > +2 for percent or relative absolute number of CCR7+CD62L+ cells; for number or ratio of cells co-expressing CCR7 and CD62L: viable CD4+ population
From the text: as §1, §2, §3, §4

K562-CD19 = test: Secondary tumor rechallenge of mice that survived primary tumor challenge; format: in vivo, NSG mice; details: 21 day post challenge with secondary tumor
Nalm-6-luc = test: In vivo tumor clearance by compound-treated CAR-T cells in tumor-bearing NSG mice; details: 0.2×10^6 CD4 and CD8 CAR-T cells 1:1, retroorbital, one week after tumor injection
Protocol: CAR-T cells were generated from CD4+ and CD8+ T cells that were separately activated and expanded in vitro. The cells were transduced with the CAR-2 construct (FIG. 2) one day after activation and then replated into 24-well GREX plates with or without the compounds. Half the media was replaced every two days thereafter until harvest one week post-activation. One week after tumor injection, the NSG mice were treated with 0.2×10^6 CD4 and CD8 CAR-T cells mixed at a 1:1 ratio via retroorbital injection. The mice were imaged periodically to determine tumor burden.

CD8 T cells = test: CD27 cell surface expression on CAR-transduced CD8 T cells by flow cytometry; format: cell-based, human; details: 20 nM rapa, 10 μM dmPGE2 or both; day 8; two donors; relative to vehicle (DMSO)
Protocol: (§5) In order to perform these studies, isolated CD8 T cells were activated in bulk on day 0 using CTS (Cell Therapy Systems) Dynabeads™ CD3/CD28 (Thermo Fisher Scientific, Waltham, MA) in T cell media supplemented with IL-2. On day 1, cells were transduced with the CAR Construct 1 shown in FIG. 2 and cell density was adjusted to 0.5×10^6/ml and 10^6 cells were seeded into 12 well plates in the presence of vehicle, 20 nM rapa, 10 μM dmPGE2 or both compounds at the same concentrations. On day 4, cells were transferred into 6-well plates and 2 ml of media was added to each well. On day 6 another 2 ml of media was added to each well. On day 8, cells were analyzed on a flow cytometer for cell surface expression of CD27.

CD8 CAR-T cells = test: Exhaustion marker (PD-1, Tim-3) expression on CAR-T cells by flow cytometry; format: cell-based, human; details: 20 nM rapa, 10 μM dmPGE2 or both; two donors; relative to vehicle
From the text: T cell dysfunction due to ‘exhaustion’ is a state that can preclude adequate control of cancer or infection.

CD8+ T-cells [1] = test: Gene panel expression changes on Affymetrix human transcriptome arrays; format: cell-based; details: fold change relative to vehicle treatment
Protocol: In order to perform these studies, isolated CD8 T cells were activated in bulk on day 0 using CTS (Cell Therapy Systems) Dynabeads™ CD3/CD28 (Thermo Fisher Scientific, Waltham, MA) in T cell media supplemented with IL-2. On day 1, cells were transduced with the CAR Construct 1 shown in FIG. 2 and cell density was adjusted to 0.5×10^6/ml and 10^6 cells were seeded into 12 well plates in the presence of vehicle, 20 nM rapa, 10 μM dmPGE2 or both compounds at the same concentrations. On day 4, cells were transferred into 6-well plates and 2 ml of media was added to each well. On day 6 another 2 ml of media was added to each well.
The RNA was analyzed on Affymetrix human transcriptome arrays and fold changes (relative to vehicle treatment) of the genes in the panel were determined.

Nalm6 tumor cells = test: In vitro serial killing assay of CAR-T cells co-cultured with tumor cells; format: cell-based, human; details: three rounds of in vitro killing
From the text: An in vitro serial killing assay, where CAR-T cells are allowed to “clear” tumor cells in vitro over multiple rounds, is a model that can assess CAR-T expansion in the presence of tumor cells that express the antigen recognized by the CAR. […] After thawing, the CAR-T cells were co-cultured with Nalm6 tumor cells that express endogenous CD19 and transgenic mKate2, a far-red fluorescent protein. Expression of eGFP in the CAR-T cells and mKate2 in the Nalm6 target cells allows easy and reliable identification and counting of both cell types in the serial killing assay. Prior to starting each round of killing, cell numbers were adjusted so that the same ratio of CAR-T cell to Nalm6 target cell was maintained across the CAR-T cell cultures generated from different compound treatments.

CD8+ T-cells [2] = test: Genome-wide expression on Human Transcriptome Array microarray chips; details: 20 nM rapa, 10 μM dmPGE2 or both
Protocol: as §5

Row | Compound | CD8 Hit (viable CD8+ population) | number or ratio of cells co-expressing CCR7 and CD62L (viable CD8+ population) | CD4 Hit (viable CD4+ population) | further results
1 | 2-Naphthacenecarboxamide, 7-chloro-4-(dimethylamino)-1,4,4a,5,5a,6,11,12a-octahy | CD8 | increased |  | 
2 | CCC(CO)Nc1nc(NCc2ccccc2)c2ncn(C(C)C)c2n1 (stereo in doubt) [Roscovitine, (S)-Isomer] |  | increased | CD4 | 
3 | CCCc1c(-c2ccc(O)cc2)nn(-c2ccc(O)cc2)c1-c1ccc(O)cc1 [1,3,5-tris(4-hydroxyphenyl)-4-propyl-1H-pyrazole] |  | increased | CD4 | 
4 | N.S=C(S)N1CCCC1 [1-Pyrrolidinecarbodithioic acid, ammonium salt] |  | increased | CD4 | 
5 | Nc1ncn([C@@H]2O[C@H](CO)[C@@H](O)[C@H]2O)c(=O)n1 [5-Azacytidine] | CD8 | increased | CD4 | number or ratio of cells co-expressing CCR7 and CD62L (viable CD4+ population): increased
6 | Sc1ncnc2nc[nH]c12 [6-Mercaptopurine] | CD8 | increased | CD4 | number or ratio of cells co-expressing CCR7 and CD62L (viable CD4+ population): increased
7 | Oc1c(Cl)cc(Cl)c2cccnc12 [8-Quinolinol,5,7-dichloro-] | CD8 | increased | CD4 | number or ratio of cells co-expressing CCR7 and CD62L (viable CD4+ population): increased
8 | Oc1c(I)cc(Cl)c2cccnc12 [8-Quinolinol,5-chloro-7-iodo-] | CD8 | increased | CD4 | number or ratio of cells co-expressing CCR7 and CD62L (viable CD4+ population): increased
9 | CC[n+]1c(/C=C/C=C2/N(C)c3ccccc3C2(C)C)sc2ccccc21.[I-] [AC-93253 iodide] | CD8 | increased | CD4 | number or ratio of cells co-expressing CCR7 and CD62L (viable CD4+ population): increased
10 | COc1ccc(-c2cc3nccn3c(Nc3ncccc3C(N)=O)n2)cc1OC [BAY 61-3606] |  | increased | CD4 | 
11 | COc1cc2nc(N3CCCN(C)CC3)nc(NC3CCN(Cc4ccccc4)CC3)c2cc1OC [BIX01294] |  | increased | CD4 | 
12 | CC[N+](C)(C)c1cccc(O)c1 [Edrophonium chloride] | CD8 | increased |  | 
13 | C[C@]12CC[C@@H]3c4ccc(O)cc4C[C@@H](CCCCCCCCC[S+]([O-])CCCC(F)(F)C(F)(F)F)[C@H]3[C@@H]1CC[C@@H]2O (some centres unmarked) [Fulvestrant] | CD8 | increased |  | 
14 | CC(C)C1CCC2(CO2)C2C(=O)OCC(C(=O)O)=CC12 (centres unmarked) [Heptelidic acid] | CD8 | increased | CD4 | number or ratio of cells co-expressing CCR7 and CD62L (viable CD4+ population): increased
15 | O=C(N/N=C/c1ccc([N+](=O)[O-])o1)c1ccc(O)cc1 [Nifuroxazide] | CD8 | increased |  | 
16 | C=CCc1cccc(/C=N/NC(=O)CN2CCN(Cc3ccccc3)CC2)c1O [PAC-1] |  | increased | CD4 | 
17 | Oc1cccc(-c2nc(N3CCOCC3)c3oc4ncccc4c3n2)c1 [PI-103] | CD8 |  | CD4 | mice with no detectable tumor (K562-CD19): 60%
18 | C=CC1=C(C)c2cc3[nH]c(cc4nc(cc5[nH]c(cc1n2)c(C)c5CCC(=O)O)C(CCC(=O)O)=C4C)c(C)c3C=C [Protoporphyrin IX disodium] |  | increased | CD4 | 
19 | CN(C)c1ccc(C=C2C(=O)Nc3ccccc32)cc1 [SU 4312] | CD8 | increased |  | 
20 | CN[C@H]1CC[C@@H](c2ccc(Cl)c(Cl)c2)c2ccccc21 [Sertraline] | CD8 |  | CD4 | 
21 | Nc1cccc(-c2cc3c(Oc4cccc(O)c4)ncnc3[nH]2)c1 [TWS119] |  |  |  | tumor clearance / tumor control by treated CAR-T cells (Nalm-6-luc): minimal tumor control
22 | CCCc1nc2c(C)cc(-c3nc4ccccc4n3C)cc2n1Cc1ccc(-c2ccccc2C(=O)O)cc1 [Telmisartan] |  | increased | CD4 | 
23 | CC(C)(C)c1ccc(C(O)CCCN2CCC(C(O)(c3ccccc3)c3ccccc3)CC2)cc1 (centres unmarked) [Terfenadine] |  | increased | CD4 | 
24 | C/C=C(/C)C(=O)O[C@H]1C(C)=C2[C@H]([C@@H]1OC(=O)CCCCCCC)[C@@](C)(OC(C)=O)C[C@H](OC(=O)CCC)[C@@]1(O)[C@H]2OC(=O)[C@@]1(C)O [Thapsigargin] | CD8 | increased |  | 
25 | O=C(O)Cc1cc(I)c(Oc2ccc(O)c(I)c2)c(I)c1 [Tiratricol] | CD8 | increased | CD4 | number or ratio of cells co-expressing CCR7 and CD62L (viable CD4+ population): increased
26 | NC1CCN(c2nc3c(cc2F)c(=O)c(C(=O)O)cn3-c2ccc(F)cc2F)C1 (centres unmarked) [Tosufloxacin hydrochloride] |  | increased | CD4 | 
27 | N#CC(=C(/N)Sc1ccccc1N)/C(C#N)=C(\N)Sc1ccccc1N [U0126] |  | increased | CD4 | tumor clearance / tumor control by treated CAR-T cells (Nalm-6-luc): minimal tumor control
28 | CCCCC(C)(C)[C@H](O)/C=C/[C@H]1[C@H](O)CC(=O)[C@@H]1C/C=C\CCCC(=O)O [dmPGE2, 16,16-dimethyl Prostaglandin E2] |  |  |  | CD27 expression, relative MFI (vehicle defined as 1) (CD8 T cells): no increase; PD-1 expression (CD8 CAR-T cells): decreased; Tim-3 expression (CD8 CAR-T cells): no effect; BLIMP-1 expression (CD8+ T-cells [1]): slightly upregulated; clearing of target cells over time by previously treated CAR-T cells (Nalm6 tumor cells): successfully cleared target cells; total number of genes down-regulated more than 2 fold compared to vehicle control (CD8+ T-cells [2]): 38; total number of genes up-regulated more than 2 fold compared to vehicle control (CD8+ T-cells [2]): 71
29 | CO[C@H]1C[C@@H]2CC[C@@H](C)[C@@](O)(O2)C(=O)C(=O)N2CCCC[C@H]2C(=O)O[C@H]([C@H](C)C[C@@H]2CC[C@@H](O)[C@H](OC)C2)CC(=O)[C@H](C)/C=C(\C)[C@@H](O)[C@@H](OC)C(=O)[C@H](C)C[C@H](C)/C=C/C=C/C=C/1C [rapamycin] |  |  |  | CD27 expression, relative MFI (vehicle defined as 1) (CD8 T cells): approximately 2 fold; total number of genes down-regulated more than 2 fold compared to vehicle control (CD8+ T-cells [2]): 284; total number of genes up-regulated more than 2 fold compared to vehicle control (CD8+ T-cells [2]): 215
30 | Diethylenetriaminepentaacetic acid, penta sodium | CD8 | increased | CD4 | number or ratio of cells co-expressing CCR7 and CD62L (viable CD4+ population): increased
